Data taken from US8552175B2, “Sulfur transfer reagents for oligonucleotide synthesis” (A.M. Chemicals, Inc., priority 2009, dated 2013).

Tests used:
[1] = test system: solid support-bound internucleosidic phosphite triesters; assay: Sulfur transfer in solid phase synthesis of oligonucleotide phosphorothioates, HPLC and ES MS; conditions: for contact time required for complete sulfur transfer: optimized conditions

melting point	Compound	contact time required for complete sulfur transfer ([1]; 0.02 M solution of reagent)	contact time required for complete sulfur transfer ([1]; 0.05 M solution of reagent)	contact time required for complete sulfur transfer ([1]; 0.1 M solution of reagent)	performance in oligonucleotide synthesis compared with compound 1 ([1]; in words)
	5-Phenyl-3H-1,2,4-dithiazol-3-thione [Compound 7]	2 min	1 min	0.5 min	substantially similar performance
73 to 75 °C	S=c1ncss1 [Compound 6, 3H-1,2,4-dithiazol-3-thione]				
